# Test results reported in patent US7148232B2, “Oxazolo, thiazolo and selenazolo [4,5-c]-quinolin-4-amines and analogs thereof” (3M Innovative Properties Company, priority 1998, dated 2006).
# What was measured:
# interferon (α) [1] = assay: Interferon (α) induction in human cells (in vitro human blood cell system, interferon by bioassay); type: cell-based; settings: human PBM's, 48 hours
# interferon (α) [2] = assay: Cytokine induction in human cells: interferon (α) secreted by PBMCs (ELISA or bioassay); type: cell-based; settings: 18 to 24 hours
# Protocol: (§1) An in vitro human blood cell system was used to assess cytokine induction by compounds of the invention.
# (§2) Whole blood is collected by venipuncture into EDTA vacutainer tubes from healthy human donors. […] The PBMC suspension is added to 48 well flat bottom sterile tissue culture plates (Costar, Cambridge, Mass. or Becton Dickinson Labware, Lincoln Park, N.J.) containing an equal volume of RPMI complete media containing test compound.
# (§3) The compounds are solubilized in dimethyl sulfoxide (DMSO). The DMSO concentration should not exceed a final concentration of 1% for addition to the culture wells.
# (§4) The solution of test compound is added at 60 μM to the first well containing RPMI complete and serial 3 fold dilutions are made. The PBMC suspension is then added to the wells in an equal volume, bringing the test compound concentrations to the desired range (0.12 to 30 μM). The final concentration of PBMC suspension is 1.5–2×10^6 cells/mL. The plates are covered with sterile plastic lids, mixed gently and then incubated for 18 to 24 hours at 37° C. in a 5% carbon dioxide atmosphere.
# (§5) Following incubation the plates are centrifuged for 5–10 minutes at 1000 rpm (˜200×g) at 4° C. The cell culture supernatant is removed with a sterile polypropylene pipet and transferred to sterile polypropylene tubes. Samples are maintained at −30 to −70° C. until analysis. The samples are analyzed for interferon (α) by either ELISA or bioassay and for tumor necrosis factor (α) by ELISA
# Interferon is determined by bioassay using A549 human lung carcinoma cells challenged with encephalomyocarditis. […] Briefly stated the method is as follows: A549 cells are incubated with dilutions of samples or a standard interferon at 37° C. for 24 hours. The incubated cells are then infected with an inoculum of encephalomyocarditis virus. The infected cells are incubated for an additional 24 hours at 37° C. before evaluating for viral cytopathic effect. The viral cytopathic effect is quantified by staining with crystal violet followed by visual scoring of the plates. Results are expressed as alpha reference units/mL based on the value obtained for NIH Human Leukocyte IFN standard.
# Interferon (α) concentration is determined by ELISA using a Human Multi-Species kit from PBL Biomedical Laboratories, New Brunswick, N.J. according to the manufacturer's instructions.
# [3] = tested on: tumor necrosis factor (α); assay: Cytokine induction in human cells: tumor necrosis factor (α) secreted by PBMCs (ELISA); type: cell-based; settings: 18 to 24 hours
# Protocol: as §1, §2, §3, §4, §5
# Tumor necrosis factor (α) (TNF) concentration is determined using ELISA kits available from Genzyme, Cambridge, Mass.; R&D Systems, Minneapolis, Minn.; or Pharmingen, San Diego, Calif. according to the manufacturer's instructions.
SMILES,Interferon (α) Induction in Human Cells (interferon (α) [1]; Dose Concentration 0.01 μg/mL),Interferon (α) Induction in Human Cells (interferon (α) [1]; Dose Concentration 0.05 μg/mL),Interferon (α) Induction in Human Cells (interferon (α) [1]; Dose Concentration 0.10 μg/mL),Interferon (α) Induction in Human Cells (interferon (α) [1]; Dose Concentration 0.50 μg/mL),Interferon (α) Induction in Human Cells (interferon (α) [1]; Dose Concentration 1.0 μg/mL),Interferon (α) Induction in Human Cells (interferon (α) [1]; Dose Concentration 5.0 μg/mL),Interferon (α) Induction in Human Cells (interferon (α) [1]; Dose Concentration 10.0 μg/mL),Interferon (α) Induction (interferon (α) [2]; Dose Concentration 0.12 μM),Interferon (α) Induction (interferon (α) [2]; Dose Concentration 0.37 μM),Interferon (α) Induction (interferon (α) [2]; Dose Concentration 1.11 μM),Interferon (α) Induction (interferon (α) [2]; Dose Concentration 3.33 μM),Interferon (α) Induction (interferon (α) [2]; Dose Concentration 10 μM),Interferon (α) Induction (interferon (α) [2]; Dose Concentration 30 μM),Tumor Necrosis Factor Induction ([3]; Dose Concentration 0.12 μM),Tumor Necrosis Factor Induction ([3]; Dose Concentration 0.37 μM),Tumor Necrosis Factor Induction ([3]; Dose Concentration 1.11 μM),Tumor Necrosis Factor Induction ([3]; Dose Concentration 3.33 μM),Tumor Necrosis Factor Induction ([3]; Dose Concentration 10 μM),Tumor Necrosis Factor Induction ([3]; Dose Concentration 30 μM),melting point [°C],other results
"CC(C)c1nc2c(N)nc3ccccc3c2s1 [Example 20, 2-(1-Methyethyl)thiazolo[4,5-c]quinolin-4-amine]",−,−,−,−,−,+,+,−,−,+,−,−,−,−,−,−,+,+,+,163 to 165,Interferon (α) Induction in Human Cells (interferon (α) [1]; Dose Concentration 25.0 μg/mL): +; Interferon (α) Induction in Human Cells (interferon (α) [1]; Dose Concentration 50.0 μg/mL): +
"Nc1nc2ccccc2c2sc(CCc3ccccc3)nc12 [Example 24, 2-(2-Phenyl-1-ethyl)thiazolo[4,5-c]quinolin-4-amine]",−,−,−,−,−,−,+,−,−,−,−,−,−,−,−,−,−,−,+,158 to 159,Interferon (α) Induction in Human Cells (interferon (α) [1]; Dose Concentration 25.0 μg/mL): +; Interferon (α) Induction in Human Cells (interferon (α) [1]; Dose Concentration 50.0 μg/mL): +
"CCCc1nc2c(N)nc3ccc(N)cc3c2s1 [Example 42, 2-Propylthiazolo[4,5-c]quinolin-4,8-diamine]",−,−,−,+,+,+,,−,−,−,−,+,−,−,−,+,+,+,+,190 to 192,
"Nc1nc2ccccc2c2sc(N3CCOCC3)nc12 [Example 53, 2-(4-Morpholino)thiazolo[4,5-c]quinolin-4-amine]",−,−,−,−,−,−,−,−,−,−,−,−,−,−,−,−,−,−,−,225 to 227,Interferon (α) Induction in Human Cells (interferon (α) [1]; Dose Concentration 25.0 μg/mL): +; Interferon (α) Induction in Human Cells (interferon (α) [1]; Dose Concentration 50.0 μg/mL): +
"CCCc1nc2c(N)nc3cccnc3c2s1 [Example 60, 2-Propylthiazolo[4,5-c][1,5]naphthyridin-4-amine]",,,,,,,,−,−,−,−,−,−,−,±,+,+,+,+,135 to 136,
"CCCc1nc2c(N)nc3cc(Cl)ccc3c2s1 [Example 63, 7-Chloro-2-propylthiazolo[4,5-c]quinolin-4-amine]",,,,,,,,−,−,+,+,+,−,+,+,+,+,+,+,159 to 160,
"CCCc1nc2c(N)nc3cc(OC)ccc3c2s1 [Example 64, 7-Methoxy-2-propylthiazolo[4,5-c]quinolin-4-amine]",,,,,,,,−,+,+,+,+,+,+,+,+,+,+,+,152 to 154,
